Tests used:
[1] = tested on: TRP-2; experiment: tyrosinase enzyme based model: inhibition of color formation from the action of TRP-2 on tyrosine, spectrophotometric rate kinetics; assay type: biochemical; details: TRP-2 model extended as predictive to MMP-2 and MMP-9 inhibition, wound healing application
From the text: It is based on the inhibition of a tyrosinase enzyme based model system, for example Canters et al., “Kinetic and paramagnetic NMR investigations of the inhibition of Streptomyces antibioticus tyosinase”, Journal of Molecular Catalysis, B: Enzymatics, vol. 8, 27-35 (2000). Tyrosinase is a copper-based monooxygenase enzyme that catalyzes the hydroxylation of monophenols (hydroxybenzenes) and the oxidation of ortho-diphenols to ortho-quinones. The active-site of tyrosinase is known to contain two copper ions (CuA and CuB). […] The regions around these copper-binding ligands are well conserved. Moreover, the distance between these two copper ions is […] [(van Amsterdam et al., Angewandte Chemie, 42: 62-64 (2003); Bubacco et al., J. Biol. Chem., 181-194 (2003)]. At least two proteins related to tyrosinase are known to exist in mammals, and include TRP-1, which is responsible for the conversion of 5,6-dihydroxyindole-2-carboxylic acid (DHICA) to indole-5,6-quinone-2-carboxylic acid (IQCA) or indole-5,6-quinone (IQ); and TRP-2, which is the melanogenic enzyme DOPAchrome tautomerase that catalyzes the conversion of DOPAchrome to DHICA. TRP-2 differs from tyrosinases and TRP-1 in that it binds two zinc ions instead of copper. Other proteins that belong to this family are plant polyphenol oxidases (PPO), which catalyze the oxidation of mono- and ortho-diphenols to ortho-diquinone. […] The colorless tyrosine is converted into yellow/orange colored ortho-diquinone of tyrosine, which is spectrophotometrically quantitated and its rate kinetics thus established.

[2] = target: MMP-9 (Homo sapiens, UniProt P14780); details: in words; cited from earlier work
[3] = target: MMP-13 (Homo sapiens, UniProt P45452); details: in words; cited from earlier work
[4] = target: T1, MMP-1 (Homo sapiens, UniProt P03956); details: in words; cited from earlier work
T1 sequence (P03956 100-469): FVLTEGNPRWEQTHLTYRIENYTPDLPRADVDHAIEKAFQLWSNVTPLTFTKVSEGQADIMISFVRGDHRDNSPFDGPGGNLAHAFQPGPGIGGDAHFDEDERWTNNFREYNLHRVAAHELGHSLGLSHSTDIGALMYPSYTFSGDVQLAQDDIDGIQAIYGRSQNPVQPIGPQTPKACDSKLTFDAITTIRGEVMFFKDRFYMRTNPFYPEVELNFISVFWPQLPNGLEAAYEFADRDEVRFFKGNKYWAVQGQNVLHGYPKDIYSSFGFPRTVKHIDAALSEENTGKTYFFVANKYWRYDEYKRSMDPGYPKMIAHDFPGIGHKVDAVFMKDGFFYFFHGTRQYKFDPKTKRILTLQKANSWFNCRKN

MMP-9, sequence (P14780 94-707, species assumed): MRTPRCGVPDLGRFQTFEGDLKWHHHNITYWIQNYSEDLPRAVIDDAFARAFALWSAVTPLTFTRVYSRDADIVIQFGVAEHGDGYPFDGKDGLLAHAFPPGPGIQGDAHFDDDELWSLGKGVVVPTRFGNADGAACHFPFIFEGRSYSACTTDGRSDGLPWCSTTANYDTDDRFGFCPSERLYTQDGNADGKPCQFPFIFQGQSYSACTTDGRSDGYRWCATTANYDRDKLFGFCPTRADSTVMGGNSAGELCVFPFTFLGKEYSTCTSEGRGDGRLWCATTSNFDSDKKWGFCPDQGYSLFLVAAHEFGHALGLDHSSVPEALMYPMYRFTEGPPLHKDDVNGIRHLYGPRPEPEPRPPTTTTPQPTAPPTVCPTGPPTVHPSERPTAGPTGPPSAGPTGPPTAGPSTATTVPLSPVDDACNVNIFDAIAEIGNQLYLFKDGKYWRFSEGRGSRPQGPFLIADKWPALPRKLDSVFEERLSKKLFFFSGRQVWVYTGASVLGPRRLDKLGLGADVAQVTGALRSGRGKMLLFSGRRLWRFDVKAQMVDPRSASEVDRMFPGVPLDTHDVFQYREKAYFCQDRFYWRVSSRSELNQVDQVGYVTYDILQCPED

SMILES | order of efficacy (acetophenones) [1] | order of efficacy (oxime derivatives) [1] | other results
COc1ccc(C(C)=O)c(O)c1 [2-Hydroxy-4-methoxyaceophenone] | 2,4-Dihydroxyacetophenone>2-Hydroxy-4-methoxyaceophenone >>>Arbutin | – | –
CC(=O)c1cc(O)ccc1O [2,5-Dihydroxyacetophenone] | 2,6-Dihydroxyacetophenone>2,5-Dihydroxyacetophenone>2,4-Dihydroxyacetophenone | – | –
COc1ccc(C(C)=NO)c(O)c1 [2-Hydroxy-4-methoxyaceophenone Oxime] | – | 2,4-Dihydroxyacetophenone Oxime>2-Hydroxy-4-methoxyaceophenone Oxime | –
CC(=O)c1c(O)cccc1O [2,6-Dihydroxyacetophenone] | 2,6-Dihydroxyacetophenone>2,5-Dihydroxyacetophenone | – | –
CC(=NO)c1ccc(O)cc1O [2,4-Dihydroxyacetophenone Oxime] | – | 2,5-Dihydroxyacetophenone Oxime>2,4-Dihydroxyacetophenone Oxime>2-Hydroxy-4-methoxyaceophenone Oxime | –
O=C(NCCCCN1CCOCC1)c1cc2ccccc2o1 [CL-82198] | – | – | activity against MMP-9 [2]: complete lack of activity; inhibition of MMP-13 [3]: weak inhibition; activity against MMP-1 [4]: complete lack of activity
Cc1cc(C)c(N(Cc2ccccc2)S(=O)(=O)c2ccc(OCCNC(=O)c3cc4ccccc4o3)cc2)c(C(=O)NO)c1 [WAY-170523] | – | – | inhibition of MMP-13 [3]: potent
CC(=O)c1ccc(O)cc1O [2,4-Dihydroxyacetophenone] | 2,5-Dihydroxyacetophenone>2,4-Dihydroxyacetophenone>2-Hydroxy-4-methoxyaceophenone | – | –
CC(=NO)c1c(O)cccc1O [2,6-Dihydroxyacetophenone Oxime] | – | 2,6-Dihydroxyacetophenone Oxime>2,5-Dihydroxyacetophenone Oxime | –
CC(=NO)c1cc(O)ccc1O [2,5-Dihydroxyacetophenone Oxime] | – | 2,6-Dihydroxyacetophenone Oxime>2,5-Dihydroxyacetophenone Oxime>2,4-Dihydroxyacetophenone Oxime | –
OC[C@H]1O[C@@H](Oc2ccc(O)cc2)[C@H](O)[C@@H](O)[C@@H]1O [Arbutin, reference compound] | 2-Hydroxy-4-methoxyaceophenone >>>Arbutin | – | –
